Laboratory results from patent US10472341B2, “Bicyclic tetrahydrothiazepine derivatives useful for the treatment of neoplastic and/or infectious diseases” (APEIRON BIOLOGICS AG, priority 2015, dated 2019).
Where a name gives a salt, the structure may show the parent alone. Read-outs that look alike come from different tables or passages of the source.

Legend:
Format in all cases: cell-based
[1] = tested on: aCD3/aCD28-stimulated human PBMCs; assay: Cytokine production in aCD3/aCD28 stimulated human PBMCs; settings: PBMC, 18 h
In short: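 Compound effects measured in buffy-coat PBMCs activated 18 h at 37° C by 1 μg/mL each of soluble anti-CD3 (OKT3) and anti-CD28 (28.2), 1e6 cells/mL. Cytokines in harvested supernatants read by MSD or HTRF.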

[2] = tested on: CD4 T cells; assay: CD69 expression on aCD3/aCD28 stimulated isolated human CD4 T cells (flow cytometry); settings: 24 h after TCR stimulation, read-out: Activity Class CD69 (CD4)
Description: (§1) Isolated T cells were plated in Xvivo medium at 1.5*10 ^5 cells per in 96 well culture plates and TCR-stimulated with anti-CD3/28 mAbs in the presence of compound as indicated. Cytokine production was determined at 24 h or 48 h following TCR stimulation in cell culture supernatants using commercially available ELISA kits (BD and eBioscience) as recommended by the manufacturer. T cell proliferation and CD25 expression (CD25-PC5 reagent purchased from Beckman Coulter) was determined by flow cytometry (Beckman-Coulter FC500) and analysed with Kaluza Software. For measurement of CD69 expression, isolated CD4 and CD8 T cells were plated in Xvivo medium at […] per in 96 well culture plates and TCR-stimulated with anti-CD3/28 mAbs in the presence of compound. CD69 expression was determined at 24 h following TCR stimulation by flow cytometry (CD4eF450, CD8APCeF780 and CD69-PC7 reagent purchased from eBioscience) and analysed with Kaluza Software.
(§2) For measurement of CD69 expression, isolated CD4 and CD8 T cells were plated in Xvivo medium at 80000 cells per in 96 well culture plates and TCR-stimulated with anti-CD3/28 mAbs in the presence of compound. CD69 expression was determined at 24 h following TCR stimulation by flow cytometry (CD4eF450, CD8APCeF780 and CD69-PC7 reagent purchased from eBioscience) and analysed with Kaluza Software.

[3] = tested on: CD8 T cells; assay: CD69 expression on aCD3/aCD28 stimulated isolated human CD8 T cells (flow cytometry); settings: T-cell, 24 h after TCR stimulation, read-out: Activity Class CD69 (CD8)
Description: as §1, §2

[4] = enhancement of IFN-γ production, read-out: Activity Class IFN-γ
[5] = enhancement of IL-2 production, read-out: Activity Class IL-2

`N[C@H]1CS(=O)(=O)c2cc(F)c(C(=O)NCC3CCOCC3)cc2N(Cc2ccc(F)cc2)C1=O` [Example 139, (3R)-3-amino-8-fluoro-5-[(4-fluorophenyl)methyl]-N-[(oxan-4-yl)methyl]-1,1,4-trioxo-2,3,4,5-tetrahydro-1λ^6,5-benzothiazepine-7-carboxamide hydrochloride] was tested, and the EC50 [1, 4] was 1580 to 5010 nM, the EC50 [1, 5] was 1580 to 5010 nM and the EC50 [2] was 1580 to 5010 nM. It also gave an EC50 [3] of over 5010 nM.
Compound `N[C@H]1CS(=O)(=O)c2cc(F)c(C(=O)NC3CC(F)(F)C3)cc2N(Cc2ccc(F)cc2)C1=O` [Example 140, (3R)-3-amino-N-(3,3-difluorocyclobutyl)-8-fluoro-5-[(4-fluorophenyl)methyl]-1,1,4-trioxo-2,3,4,5-tetrahydro-1λ^6,5-benzothiazepine-7-carboxamide hydrochloride] has an EC50 [1, 4] of 1580 to 5010 nM, an EC50 [1, 5] of 1580 to 5010 nM and an EC50 [2] of 1580 to 5010 nM. It also gave an EC50 [3] of over 5010 nM.
In the case of `COc1ccc(CN2C(=O)[C@@H](N)CS(=O)(=O)c3cc(F)c(C(=O)NCCCC(F)(F)F)cc32)cc1` [Example 141, (3R)-3-amino-8-fluoro-5-[(4-methoxyphenyl)methyl]-1,1,4-trioxo-N-(4,4,4-trifluorobutyl)-2,3,4,5-tetrahydro-1λ^6,5-benzothiazepine-7-carboxamide], the EC50 [1, 4] is reported as under 1580 nM, the EC50 [1, 5] is reported as under 1580 nM and the EC50 [2] is reported as under 1580 nM. For the same compound, the EC50 [3] was under 1580 nM.
In the case of `COc1ccc(CN2C(=O)[C@@H](N)CS(=O)(=O)c3cc(F)c(C(=O)NCC4CCOCC4)cc32)cc1` [Example 142, (3R)-3-amino-8-fluoro-5-[(4-methoxyphenyl)methyl]-N-[(oxan-4-yl)methyl]-1,1,4-trioxo-2,3,4,5-tetrahydro-1λ^6,5-benzothiazepine-7-carboxamide], the EC50 [1, 4] is reported as 1580 to 5010 nM, the EC50 [1, 5] is reported as 1580 to 5010 nM and the EC50 [2] is reported as over 5010 nM. For the same compound, the EC50 [3] was over 5010 nM.
`COc1ccc(CN2C(=O)[C@@H](N)CS(=O)(=O)c3cc(F)c(C(=O)NC4CC4(F)F)cc32)cc1` (stereo partly drawn) [Example 143, (3R)-3-amino-N-(2,2-difluorocyclopropyl)-8-fluoro-5-[(4-methoxyphenyl)methyl]-1,1,4-trioxo-2,3,4,5-tetrahydro-1λ^6,5-benzothiazepine-7-carboxamide] showed an EC50 [1, 4] of 1580 to 5010 nM, an EC50 [1, 5] of 1580 to 5010 nM and an EC50 [2] of 1580 to 5010 nM. It also gave an EC50 [3] of over 5010 nM.
In the case of `N[C@H]1CS(=O)(=O)c2ccc(C(=O)NC3CC(F)(F)C3)cc2N(Cc2ccc(Cl)cc2)C1=O` [Example 145, (3R)-3-amino-5-[(4-chlorophenyl)methyl]-N-(3,3-difluorocyclobutyl)-1,1,4-trioxo-2,3,4,5-tetrahydro-1λ^6,5-benzothiazepine-7-carboxamide], the EC50 [1, 4] is reported as 1580 to 5010 nM, the EC50 [1, 5] is reported as 1580 to 5010 nM and the EC50 [2] is reported as under 1580 nM. For the same compound, the EC50 [3] was under 1580 nM.
Work on `N[C@H]1CS(=O)(=O)c2cc(F)c(C(=O)N[C@H]3CCC(F)(F)C3)cc2N(Cc2ccc(Cl)cc2)C1=O` [Example 146, (3R)-3-amino-5-[(4-chlorophenyl)methyl]-N-[(1S)-3,3-difluorocyclopentyl]-8-fluoro-1,1,4-trioxo-2,3,4,5-tetrahydro-1λ^6,5-benzothiazepine-7-carboxamide] yielded an EC50 [1, 4] of under 1580 nM, an EC50 [1, 5] of under 1580 nM and an EC50 [2] of 1580 to 5010 nM. It also gave an EC50 [3] of 1580 to 5010 nM.
With `COc1ccc(CN2C(=O)[C@@H](N)CS(=O)(=O)c3ccc(C(=O)NCCCC(F)(F)F)cc32)cc1` [Example 150, (3R)-3-amino-5-[(4-methoxyphenyl)methyl]-1,1,4-trioxo-N-(4,4,4-trifluorobutyl)-2,3,4,5-tetrahydro-1λ^6,5-benzothiazepine-7-carboxamide] the EC50 [1, 4] was 1580 to 5010 nM, the EC50 [1, 5] was 1580 to 5010 nM and the EC50 [2] was over 5010 nM. It also gave an EC50 [3] of over 5010 nM.
For `COc1ccc(CNC(=O)c2ccc3c(c2)N(Cc2ccc(OC)cc2)C(=O)[C@@H](N)CS3(=O)=O)cc1` [Example 151, (3R)-3-amino-N,5-bis[(4-methoxyphenyl)methyl]-1,1,4-trioxo-2,3,4,5-tetrahydro-1λ^6,5-benzothiazepine-7-carboxamide], the EC50 [1, 4] was 1580 to 5010 nM, the EC50 [1, 5] was 1580 to 5010 nM and the EC50 [2] was 1580 to 5010 nM. The EC50 [3] was under 1580 nM.
For `COc1ccc(CNC(=O)c2ccc3c(c2)N(Cc2ccccc2)C(=O)[C@@H](N)CS3(=O)=O)cc1` [Example 152, (3R)-3-amino-5-benzyl-N-[(4-methoxyphenyl)methyl]-1,1,4-trioxo-2,3,4,5-tetrahydro-1λ^6,5-benzothiazepine-7-carboxamide], the EC50 [1, 4] was 1580 to 5010 nM, the EC50 [1, 5] was over 5010 nM and the EC50 [2] was 1580 to 5010 nM. The EC50 [3] was 1580 to 5010 nM.
Work on `COc1ccc(CNC(=O)c2ccc3c(c2)N(Cc2ccc(Cl)cc2)C(=O)[C@@H](N)CS3(=O)=O)cc1` [Example 153, (3R)-3-amino-5-[(4-chlorophenyl)methyl]-N-[(4-methoxyphenyl)methyl]-1,1,4-trioxo-2,3,4,5-tetrahydro-1λ^6,5-benzothiazepine-7-carboxamide] yielded an EC50 [1, 4] of under 1580 nM, an EC50 [1, 5] of under 1580 nM and an EC50 [2] of under 1580 nM. It also gave an EC50 [3] of under 1580 nM.
For `COc1ccc(CN2C(=O)[C@@H](N)CS(=O)(=O)c3ccc(C(=O)NC4CCC(F)(F)CC4)cc32)cc1` [Example 154, (3R)-3-amino-N-(4,4-difluorocyclohexyl)-5-[(4-methoxyphenyl)methyl]-1,1,4-trioxo-2,3,4,5-tetrahydro-1λ^6,5-benzothiazepine-7-carboxamide], the EC50 [1, 4] was 1580 to 5010 nM, the EC50 [1, 5] was over 5010 nM and the EC50 [2] was 1580 to 5010 nM. For the same compound, the EC50 [3] was under 1580 nM.
`N[C@H]1CS(=O)(=O)c2ccc(C(=O)NCCC(F)(F)F)cc2N(Cc2ccc(Cl)cc2)C1=O` [Example 155, (3R)-3-amino-5-[(4-chlorophenyl)methyl]-1,1,4-trioxo-N-(3,3,3-trifluoropropyl)-2,3,4,5-tetrahydro-1λ^6,5-benzothiazepine-7-carboxamide] gave an EC50 [1, 4] of 1580 to 5010 nM, an EC50 [1, 5] of 1580 to 5010 nM and an EC50 [2] of under 1580 nM. The EC50 [3] was under 1580 nM.
`N[C@H]1CS(=O)(=O)c2ccc(C(=O)N[C@@H]3CC3(F)F)cc2N(Cc2ccc(Cl)cc2)C1=O` [Example 158, (3R)-3-amino-5-[(4-chlorophenyl)methyl]-N-[(1R)-2,2-difluorocyclopropyl]-1,1,4-trioxo-2,3,4,5-tetrahydro-1λ^6,5-benzothiazepine-7-carboxamide] was tested, and the EC50 [1, 4] was under 1580 nM, the EC50 [1, 5] was 1580 to 5010 nM and the EC50 [2] was 1580 to 5010 nM. The EC50 [3] was 1580 to 5010 nM.
Compound `N[C@H]1CS(=O)(=O)c2ccc(C(=O)N[C@@H]3CC3(F)F)cc2N(Cc2ccc(C3CC3)cc2)C1=O` [Example 159, (3R)-3-amino-5-[(4-cyclopropylphenyl)methyl]-N-[(1R)-2,2-difluorocyclopropyl]-1,1,4-trioxo-2,3,4,5-tetrahydro-1λ^6,5-benzothiazepine-7-carboxamide] has an EC50 [1, 4] of 1580 to 5010 nM, an EC50 [1, 5] of 1580 to 5010 nM and an EC50 [2] of under 1580 nM. For the same compound, the EC50 [3] was under 1580 nM.
`N[C@H]1CS(=O)(=O)c2ccc(C(=O)N[C@@H]3CC3(F)F)cc2N(Cc2ccc(OC(F)F)cc2)C1=O` [Example 160, (3R)-3-amino-N-[(1R)-2,2-difluorocyclopropyl]-5-{[4-(difluoromethoxy)phenyl]methyl}-1,1,4-trioxo-2,3,4,5-tetrahydro-1λ^6,5-benzothiazepine-7-carboxamide] gave an EC50 [1, 4] of over 5010 nM, an EC50 [1, 5] of over 5010 nM and an EC50 [2] of under 1580 nM. For the same compound, the EC50 [3] was 1580 to 5010 nM.
In the case of `N[C@H]1CS(=O)(=O)c2cc(Cl)c(C(=O)NCCCC(F)(F)F)cc2N(Cc2ccc(Cl)cc2)C1=O` [Example 163, (3R)-3-amino-8-chloro-5-[(4-chlorophenyl)methyl]-1,1,4-trioxo-N-(4,4,4-trifluorobutyl)-2,3,4,5-tetrahydro-1λ^6,5-benzothiazepine-7-carboxamide], the EC50 [1, 4] is reported as under 1580 nM, the EC50 [1, 5] is reported as 1580 to 5010 nM and the EC50 [2] is reported as under 1580 nM. For the same compound, the EC50 [3] was under 1580 nM.
In the case of `N[C@H]1CS(=O)(=O)c2ccc(C(=O)NCC3(F)CCOCC3)cc2N(Cc2ccc(Cl)cc2)C1=O` [Example 165, (3R)-3-amino-5-[(4-chlorophenyl)methyl]-N-[(4-fluorooxan-4-yl)methyl]-1,1,4-trioxo-2,3,4,5-tetrahydro-1λ^6,5-benzothiazepine-7-carboxamide], the EC50 [1, 4] is reported as under 1580 nM, the EC50 [1, 5] is reported as 1580 to 5010 nM and the EC50 [2] is reported as under 1580 nM. The EC50 [3] was under 1580 nM.
In the case of `N[C@H]1CS(=O)(=O)c2ccc(C(=O)N[C@@H]3CCC(F)(F)C3)cc2N(Cc2ccc(Cl)cc2)C1=O` [Example 169, (3R)-3-amino-5-[(4-chlorophenyl)methyl]-N-[(1R)-3,3-difluorocyclopentyl]-1,1,4-trioxo-2,3,4,5-tetrahydro-1λ^6,5-benzothiazepine-7-carboxamide], the EC50 [1, 4] is reported as under 1580 nM, the EC50 [1, 5] is reported as under 1580 nM and the EC50 [2] is reported as under 1580 nM. For the same compound, the EC50 [3] was under 1580 nM.
`N[C@H]1CS(=O)(=O)c2ccc(C(=O)NCC3CC(F)(F)C3)cc2N(Cc2ccc(Cl)cc2)C1=O` [Example 171, (3R)-3-amino-5-[(4-chlorophenyl)methyl]-N-[(3,3-difluorocyclobutyl)methyl]-1,1,4-trioxo-2,3,4,5-tetrahydro-1λ^6,5-benzothiazepine-7-carboxamide] was tested, and the EC50 [1, 4] was 1580 to 5010 nM, the EC50 [1, 5] was under 1580 nM and the EC50 [2] was under 1580 nM. The EC50 [3] was under 1580 nM.
